Test results: patent US20180050040A1, “USE OF 4-(4-FLUORO-2-METHOXYPHENYL)-N--1,3,5-TRIAZIN-2-AMINE FOR TREATING LYMPHOMAS” (Bayer Pharma Aktiengesellschaft, priority 2015, published 2018)
pIC50: −log10 of the molar value. “And” between values parts separate entries of the source, which are not always exact repeats. Equal values may be shown once.

What was measured:
[1] = system: DLBCL OCI-LY-7 xenografts; test: In vivo efficacy and tolerability in DLBCL OCI-LY-7 tumour model subcutaneously implanted in NOG mice; conditions: 25 mg/kg/day p.o.
Description: The aim of the present experiments was to assess the in vivo efficacy and tolerability of Compound A′ in monotherapy in the DLBCL OCI-LY-7 tumour model subcutaneously implanted in NOG mice.
In vivo efficacy was determined in female NOG mice bearing subcutaneous DLBCL OCI-LY-7 xenografts. Compound A′ was assessed at one dose level in monotherapy. Anti-tumour activity and tolerability of the treated group was assessed using the vehicle control group as a reference.
Mouse strain, sex: NOG, female Animals supplied by: Taconic, Denmark Approximate age at implantation: 5-7 weeks
DLBCL tumour fragments, derived from the OCI-LY-7 cell line, were obtained from xenografts in serial passage in nude mice and placed in PBS containing 10% penicillin/streptomycin. Tumour fragments (one fragment per animal; 3-4 mm edge length) were then subcutaneously implanted in the flank of NOG recipient mice under isofluorane anaesthesia.
At randomisation, the volume of growing tumours was initially determined. […] The result of the randomisation was documented and maintained with the experimental data. Animals not randomised were euthanised. The day of randomisation is designated as day 0 of an experiment.
Vehicle: 80% (m/V) PEC400 in water for injection Compound A′: preparation of a dosing solution (2.5 mg/ml) once weekly by diluting the Compound A′ powder at 0.25% (w/v) in vehicle; storage of the dosing solution at 4° C.; dosing volume 10 ml/kg
Mortality checks were conducted daily during routine monitoring.
Mice were weighed twice a week. Relative body weights of individual mice in % were calculated by dividing the individual body weight on day X (BWX) by the individual body weight on day 0 (BW0) multiplied by 100 according to the formula: […]
Group median relative body weights were calculated as well, considering only the weights of mice that were alive on the day in question.
The tumour volumes were determined by two-dimensional measurement with a caliper on the day of randomisation (day 0) and then twice weekly (i.e. on the same days on which mice were weighed). Tumour volumes were calculated according to the formulas:
Tumour volume=(a×b^2)×0.5
Relative volumes of individual tumours (RTVs) for Day x were calculated by dividing the absolute individual tumour volume on Day x (Tx) by the absolute individual tumour volume of the same tumour on Day 0 (T0) multiplied by 100%:
Anti-tumour activity was evaluated as maximum tumour volume inhibition versus the vehicle control group.
Tumour inhibition for a particular day (T/C in %) was calculated from the ratio of the median RTV values of test versus control groups multiplied by 100.
The minimum (or optimum) T/C % value recorded for a particular test group during an experiment represents the maximum anti-tumour activity for the respective treatment. T/C values were calculated if at least 50% of the randomised animals in a group were alive on the day in question.
Group optimum T/C values (in %) were used for activity rating as follows: […]

[2] = system: ATL tumor cells (S-YU); test: ATL cell-bearing NOG mice treated for 18 days, efficacy evaluated 25 days after inoculation; type: in vivo; conditions: 12.5 mg/kg p.o. once daily 18 days
Description: (§1) NOD/Shi-scid, IL-2Rγ^null (NOG) mice were purchased from the Central Institute for Experimental Animals (Kanagawa, Japan) and used at between 6-8 weeks of age.
A leukemic cell clone from a patient with ATL, which could be serially transplanted into SCID mice and was designated S-YU as reported previously (Eur J Haematol. 2014; 92(3):219-228), was injected intraperitoneally (i.p.) into NOG mice. Three to four weeks after i.p. injection, NOG mice developed intraperitoneal masses within the mesentery. Cells from these intraperitoneal masses were suspended in RPMI-1640 and inoculated i.p. into healthy NOG mice, which then presented with disease features identical to those of the original mice. ATL tumor cells (S-YU) from the intraperitoneal masses were suspended in RPMI-1640, and 1.0×10^7 cells were inoculated i.p. into each of 16 naive NOG mice. The animals were randomly divided into two groups of eight each for treatment with Compound A′ or vehicle, seven days after ATL cell inoculations. Compound A′ was formulated in 40% PEG400 in water at a final concentration of 2.5 mg/mL. Mice were treated by oral application of 12.5 mg/kg Compound A′ (0.25 mg/100 μL per mouse) or vehicle (100 μL), once daily for 18 days (7-24 days after ATL cell inoculations). Therapeutic efficacy was then evaluated 25 days after ATL cell inoculations.
The concentration of human soluble IL-2 receptor (sIL2R) in mouse serum was measured by enzyme-linked immunosorbent assay (ELISA) using a human sIL2R immunoassay kit (R&D Systems, Minneapolis, Minn.) according to the manufacturer's instructions. All expressed values were averages of triplicate experiments.
(§2) Differences between groups regarding the percentage of ATL cells in mouse liver and bone marrow cell suspensions, and human sIL2R concentrations in mouse sera, were examined using a Mann-Whitney U test. Mouse survival analyses were done by Kaplan-Meier method, and survival curves were compared using the log-rank test. All analyses were performed using SPSS Statistics 17.0 software (SPSS Inc., Chicago, Ill.). In this study, P<0.05 was considered significant.

[3] = system: ATL tumor cells (S-YU); test: ATL cell-bearing NOG mice treated for 21 days, survival times; type: in vivo
Description: as §1
ATL cells from intraperitoneal masses suspended in RPMI-1640 were also inoculated i.p. into another 14 naive NOG mice at 1.0×10^7 cells per mouse. These animals were randomly divided into two groups of seven each for treatment with Compound A′ or vehicle. Compound A′ was formulated in the same manner, and mice were treated by oral application of 12.5 mg/kg Compound A′ or vehicle, once daily for 21 days (7-27 days after ATL cell inoculations). The therapeutic efficacy of Compound A′ was evaluated according to survival times.
as §2

[4] = system: S-YU; test: Cell proliferation assay (CellTiter Glo), S-YU with IL-2; type: cell-based; conditions: ATL, after 24 hours of incubation, IL-2 100 IU/mL
Description: (§3) The proliferation of all lymphoma cell lines, other than S-YU, in the presence of different concentrations of Compound A′ for 72 h was assessed using CellTiter Glo kits (Promega Corporation, Madison, Wis.). Proliferation of S-YU in the presence of recombinant human interleukin-2 (IL-2) at a final concentration of 100 IU/mL, with different concentrations of Compound A′ for 24 h, was assessed in the same manner. All expressed values were averages of triplicate experiments, and IC50 was calculated using GraphPad Prism 5 (GraphPad Software, San Diego, Calif.) according to the manufacturer's instructions or the MTS software.

[5] = system: SU-DHL-4; test: Cell proliferation assay (CellTiter Glo); type: cell-based; conditions: Homo sapiens; SU-DHL-4, DLBCL, GCB subtype; 72 h
Description: as §3

[6] = system: Jeko-1; test: Cell proliferation assay (CellTiter Glo); type: cell-based; conditions: Homo sapiens; Jeko-1, Mantle cell lymphoma; 72 h
Description: as §3

[7] = system: Karpas422; test: Cell proliferation assay (CellTiter Glo); type: cell-based; conditions: Homo sapiens, KARPAS-422; Karpas422, Follicular lymphoma; 72 h
Description: as §3

[8] = system: SU-DHL-6; test: Cell proliferation assay (CellTiter Glo); type: cell-based; conditions: Homo sapiens; SU-DHL-6, DLBCL, GCB subtype; 72 h
Description: as §3

[9] = system: OCI-LY-3; test: Cell proliferation assay (CellTiter Glo); type: cell-based; conditions: Homo sapiens, OCI-Ly3; OCI-LY-3, DLBCL, ABC subtype; 72 h
Description: as §3

[10] = system: KM-H2; test: Cell proliferation assay (CellTiter Glo); type: cell-based; conditions: Homo sapiens; KM-H2, Hodgkin lymphoma; 72 h
Description: as §3

[11] = system: MT-1; test: Cell proliferation assay (CellTiter Glo); type: cell-based; conditions: MT-1, ATL; 72 h
Description: as §3

[12] = system: HBL1; test: Cell proliferation assay (CellTiter Glo); type: cell-based; conditions: HBL1, DLBCL, ABC subtype; 72 h
Description: as §3

[13] = system: Ramos; test: Cell proliferation assay (CellTiter Glo); type: cell-based; conditions: Homo sapiens, Burkitt's lymphoma, 72 h
Description: as §3

[14] = system: MT-2; test: Cell proliferation assay (CellTiter Glo); type: cell-based; conditions: Homo sapiens, MT2; MT-2, HTLV-1-immortalized cell line; 72 h
Description: as §3

[15] = system: ATN-1; test: Cell proliferation assay (CellTiter Glo); type: cell-based; conditions: Homo sapiens; ATN-1, ATL; 72 h
Description: as §3

[16] = system: DB; test: Cell proliferation assay (CellTiter Glo); type: cell-based; conditions: Homo sapiens, DLBCL, GCB subtype, 72 h
Description: as §3

[17] = system: MJ; test: Cell proliferation assay (CellTiter Glo); type: cell-based; conditions: ATL, 72 h
Description: as §3

[18] = system: TL-Om1; test: Cell proliferation assay (CellTiter Glo); type: cell-based; conditions: TL-Om1, ATL; 72 h
Description: as §3

[19] = system: HT; test: Cell proliferation assay (CellTiter Glo); type: cell-based; conditions: Homo sapiens, DLBCL, GCB subtype, 72 h
Description: as §3

[20] = system: SU-DHL-10; test: Cell proliferation assay (CellTiter Glo); type: cell-based; conditions: Homo sapiens, SU-DHL10; SU-DHL-10, DLBCL, GCB subtype; 72 h
Description: as §3

[21] = system: OCI-LY-19; test: Cell proliferation assay (CellTiter Glo); type: cell-based; conditions: Homo sapiens, OCI-LY19; OCI-LY-19, DLBCL, GCB subtype; 72 h
Description: as §3

[22] = system: SU-DHL-8; test: Cell proliferation assay (CellTiter Glo); type: cell-based; conditions: Homo sapiens; SU-DHL-8, DLBCL, GCB subtype; 72 h
Description: as §3

[23] = system: MT-4; test: Cell proliferation assay (CellTiter Glo); type: cell-based; conditions: Homo sapiens, MT4; MT-4, HTLV-1-immortalized cell line; 72 h
Description: as §3

[24] = system: TL-SU; test: Cell proliferation assay (CellTiter Glo); type: cell-based; conditions: HTLV-1-immortalized cell line, 72 h
Description: as §3

[25] = OCI-LY-7 xenograft-bearing NOG mice, days 0-27
[26] = individual treated NOG mice 1-8, 25 days after inoculation, 12.5 mg/kg

For `COc1cc(F)ccc1-c1ncnc(Nc2cccc(CS(C)(=N)=O)c2)n1` (single isomer, unassigned; (+)) [Compound A′, (+)-4-(4-Fluoro-2-methoxyphenyl)-N-{3-[(S-methylsulfonimidoyl)methyl]phenyl}-1,3,5-triazin-2-amine], the “OCI-LY-7 tumour growth compared to vehicle control group” value ([1]; Mann-Whitney-Wilcoxon U-test) was “significantly reduced”, the “Activity Rating” value ([1]; OCI-LY-7 in NOG mice, days 0-27) was “++++ (Complete remission T/C < 5%)” and the “Min. T/C [%] (Day)” value ([1]; OCI-LY-7 in NOG mice, days 0-27, minimum on day 19, 25 mg/kg/day) was 2.6% and 2.6 (19) %. For the same compound, the Survival rate [1, 25] was 80%, the “median BWL (body weight loss)” value [1, 25] was 17.9% and the tolerability profile ([1]; lymphoma xenograft bearing mice) was “acceptable tolerability profile”. For the same compound, the “percentage of ATL cells (human CD45-positive, CD4-positive, CD8-negative) in bone marrow cell suspension” value [2, 26] was 0.01% (4×) and 0.02% (2×) and 0.72% and < 0.01%, the “percentage of ATL cells (human CD45-positive, CD4-positive, CD8-negative) in liver cell suspension” value [2, 26] was 0.9% and 1.6% and 1.0% and 0.4% and 2.2% and 1.1% and 0.6% and 0.5% and the “concentration of human sIL2R in serum, mean” value ([2]; treated NOG mice 1-8, ELISA) was 84500 pg/mL. For the same compound, the “concentration of human sIL2R in serum, median” value ([2]; treated NOG mice 1-8, ELISA) was 84900 pg/mL, the “concentration of human sIL2R in serum, range” value ([2]; treated NOG mice 1-8, ELISA) was 69.0-97.4 ×10^3 pg/mL and the “Toxicity attributable to compound” value ([3]; ATL cell-bearing NOG mice, 12.5 mg/kg p.o. once daily, during the study period) was “not observed”. The “survival of ATL cell-bearing mice” value ([3]; thirty-eight days after ATL cell inoculation, 12.5 mg/kg p.o. once daily 21 days, n=7) was “all alive”, the pIC50 [4] was 5.53 and the pIC50 [5] was 6.77. The pIC50 [6] was 6.13, the pIC50 [7] was 6.18 and the pIC50 [8] was 6.44. The pIC50 [9] was 6.47, the pIC50 [10] was 5.66 and the pIC50 [11] was 5.92. It also gave a pIC50 [12] of 6.27, a pIC50 [13] of 5.96 and a pIC50 [14] of 6.28. For the same compound, the pIC50 [15] was 6.36, the pIC50 [16] was 6.24 and the pIC50 [17] was 6.27. For the same compound, the pIC50 [18] was 6.10, the pIC50 [19] was 6.15 and the pIC50 [20] was 6.22. For the same compound, the pIC50 [21] was 6.32, the pIC50 [22] was 6.21 and the pIC50 [23] was 5.85. For the same compound, the pIC50 [24] was 5.67.
